Source: patent US20090047365A1, “Novel Concomitant Use of Sulfonamide Compound with Anti-Cancer Agent” (Eisai R & D Management Co., Ltd., priority 2005, published 2009)

Assays:
[1] = test system: human colon cancer cell line Colo320DM; test: subcutaneous transplant model of human colon cancer cell line (Colo320DM), E7820 and Oxaliplatin; assay type: in vivo; details: Colo320DM nude mouse; E7820 50 mg/kg twice a day, two weeks, oral; Oxaliplatin 10 mg/kg once in four days x3, intravenous; control 11.99 ± 1.35
[2] = test system: human pancreas cancer cell line KP-1; test: subcutaneous transplant model of human pancreas cancer cell line (KP-1), E7820 and Gemcitabine; details: KP-1 nude mouse; E7820 50 mg/kg twice a day, three weeks, oral; Gemcitabine 200 mg/kg once in three days x4, intravenous; control 14.8 ± 2.28
Method: Human pancreas cancer cell line KP-1 (obtained from the National Kyushu Cancer Center) was cultured in RPMI1640 (containing 10% FBS) in a 5% carbon dioxide incubator at 37° C. to about 80% confluence, and the cells were collected with trypsin-EDTA. Using a phosphate buffer, 1×10^8 cells/mL suspension was prepared, and 0.11 mL each of the resulting cell suspension was subcutaneously transplanted to a nude mouse at the side of its body. […] The major and minor axes of tumors were measured with Digimatic caliper (Mitsutoyo), and tumor volumes and relative tumor volumes were calculated according to the following formulae.
Tumor Volume TV=Major axis of tumor(mm)×(Minor axis of tumor)^2(mm^2)/2
(§1) Relative Tumor Volume RTV=Tumor volume on measurement day/Tumor volume on the first administration day

[3] = test system: human colon cancer cell line Colo320DM; test: subcutaneous transplant model of human colon cancer cell line (Colo320DM), E7820 and CPT-11; details: Colo320DM nude mouse; E7820 50 mg/kg twice a day, two weeks, oral; CPT-11 100 mg/kg once in four days x3, intravenous; control 11.99 ± 1.35
Method: Human colon cancer cell line Colo320DM (purchased from Dainippon Pharmaceutical) was cultured in RPMI1640 (containing 10% FBS) in a 5% carbon dioxide incubator at 37° C. to about 80% confluence, and the cells were collected with trypsin-EDTA. Using a phosphate buffer containing 50% matrigel, 7.5×10^7 cells/mL suspension was prepared, and 0.1 mL each of the resulting cell suspension was subcutaneously transplanted to a nude mouse at the side of its body. […] The major and minor axes of tumors were measured with Digimatic caliper (Mitsutoyo), and tumor volumes and relative tumor volumes were calculated according to the following formulae.
Tumor Volume TV=Major axis of tumor(mm)×(minor axis of tumor)^2(mm^2)/2
as §1

[4] = test system: DNA-topoisomerase II mRNA; test: quantification of DNA-topoisomerase II mRNA by RT-PCR; assay type: cell-based, human; details: HUVEC, 1 μM, six hours; untreated group 4.4 μg/ml
Method: 2×10^6 of human umbilical vein endothelial cells were seeded in a 25 cm^2 cell culture bottle and cultured in a CO2 incubator at 37° C. using a EGM-2 medium (Sanko Junyaku) overnight. On the following day, E7820 was added to give 1 μM. Six hours later, RNA was prepared from the cells. Specifically, the medium was removed from the cells. The cells were added with and dissolved in 3 ml of ISOGEN (Wako Pure Chemical Industries), added with an equal volume of CHCl3 and agitated. Then, the water phase was extracted. Half the amount of the water phase of isopropanol was added, left to stand for 5 minutes and centrifuged to collect the precipitate. The precipitate was washed with 70% ethanol, added with and dissolved in sterile water and absorbance at 260 nm was determined with a spectrophotometer to quantify the RNA amount.
Subsequently, TaqMan Gold RT-PCR kit (Applied Biosystems) was used to perform RT-PCR reaction. Specifically, 0.1 μg of RNA was added to 50 μl of the reaction solution, and subjected to reactions at 25° C. for 10 minutes, 48° C. for 30 minutes and 95° C. for 5 minutes to prepare cDNA. Then, a primer for determining DNA-topoisomerase II mRNA (ABI Taqman probe Hs00172214 ml) was used for PCR reaction and then ABI7700 (Applied Biosystems) was used for quantifying RNA amount.

HCT116 cells = test: DNA microarray analysis (Example 8), correlation coefficients and hierarchical cluster analysis; assay type: cell-based, human; details: 24 hours treatment at twice the 50% growth inhibitory concentration, similarity among the compounds named together
Method: HCT116 cells were cultured in an RPMI-1640 medium supplemented with 10% fetal bovine serum, 100 units/ml penicillin and 100 μg/ml streptomycin. The following cultivation and compound treatment were carried out in an incubator at 5% CO2 and 37° C. HCT116 cells were seeded in 10 cm-diameter cell culture dishes at 2.0×10^6 cells/dish, cultured for 24 hours and subjected to the following compound treatment.
In this example, changes in the gene expression of HCT116 cells upon treatments with 12 compounds, i.e., E7820 (0.16 μM), E7070 (0.26 μM), LY186641 (59 μM), LY295501 (24 μM), LY-573636 (9.6 μM), CQS (4.0 μM), MST16 (100 μM), etoposide (3.6 μM), ethoxzolamide (410 μM), capsaicin (280 μM), trichostatin A (0.16 μM) and kenpaullone (7.1 μM) were examined.
The concentration of each compound used for the treatment was set to twice the 50% growth inhibitory concentration of each compound to the HCT116 cells (based on three days of antiproliferatrive activity using MTT). The cells were collected 24 hours after the treatment at the concentration indicated in parentheses following each compound name above. Similarly, cells cultured for 24 hours without the addition of any compound were also collected.
Total RNA extraction from the collected cells was performed using TRIZOL reagent (Invitrogen) according to the attached instruction.
Gene expression analysis using a DNA microarray was carried out in the same manner as “(2) Analysis of gene expression using DNA microarray” in Example 7.
This example was conducted for each sample in duplicate (for the convenience of the experiment, samples were given branch numbers like control-1, control-2, E7070-1, E7070-2 and so on for distinction). Then, GeneChip (Affymetrix) system (Human Focus array) was used for analyzing changes in the gene expression induced by each compound.
Twenty-six “.cel” files obtained in this example (13 samples (a control+12 compounds)×2) were subjected to RMA method (robust multi-array average method (Biostatistics (2003), 4, 249-264)) for normal distribution at probe level, and then the logarithm value of the signal intensity at gene level was calculated. Next, the logarithm value of the signal intensity of the untreated group (control-1) was subtracted from the logarithm value of the signal intensity of the compound-treated group for each gene to obtain the logarithm value of the signal ratio of the compound-treated group to control-1. Then, cosine correlation coefficients were calculated as correlation coefficients between the experiments (FIG. 5). Based on these correlation coefficients, hierarchical cluster analysis was performed according to UPGMA method (Unweighted Pair Group Method with Arithmetic mean method) (FIG. 6). Control-2 was also subjected to similar calculation (FIGS. 7 and 8). The softwares used were R 2.0.1 (http://www.r-project.org/) and affy package 1.5.8 (http://www.bioconductor.org).

## Cc1ccc(NS(=O)(=O)c2cccc(C#N)c2)c2[nH]cc(C#N)c12 [E7820, N-(3-cyano-4-methyl-1H-indole-7-yl)-3-cyanobenzenesulfonamide]
[1]
  Relative tumor volume on Day 15 Average ± standard deviation: 7.05 ± 1.15
[2]
  Relative tumor volume on Day 22 Average ± standard deviation: 8.81 ± 2.57
[3]
  Relative tumor volume on Day 15 Average ± standard deviation: 7.05 ± 1.15
[4]
  amount of DNA-topoisomerase II mRNA: 1.6 µg/mL
HCT116 cells
  changes in gene expression (correlation coefficients, hierarchical cluster analysis): very similar genetic alterations
